Assays:
[1] = system: Bifidobacterium longum BB-536; assay: Preliminary Test 1: change over time in medium turbidity (growth curve) with different sugar sources; type: cell-based; details: sugar in place of glucose in basic medium; up to 24 hours of cultivation at 37° C.; turbidity 660 nm
Method: This test was performed in order to investigate changes over time in medium turbidity and determine if measurement of turbidity after a certain cultivation time is valid for assessing the speed with which the Lactobacilluls bifidus consumes sugar:
Bifidobacterium longum BB-536, which is a microorganism belonging to the genus Bifidobacterium, derived from humans that was separated and identified from the feces of healthy adults by conventional methods (Tomonari Mitsuoka, ed., “Research of Bifidus Bacteria,” pages 40˜60, Zaidanhojin Nihon Bifizusukin Senta (Japan Bifidus Bacteria Center), 1994) was used in this test. Furthermore, this strain is stored by the inventors and is available for any person as needed. […]
First, 0.5 ml of each of the above-mentioned cultivation solutions of Lactobacillus bifidus were inoculated in every 2 of the above-mentioned test media and turbidity was immediately measured with a quartz cell at a wavelength of 660 nm and light path length of 10 mm using a spectrophotometer (Hitachi Seisakusho Co., Ltd.). […] Turbidity was measured under the same conditions as previously described at 2-hour intervals and the mean turbidity of the 2 test tubes was calculated as the determination.
Moreover, basic medium containing glucose was simultaneously used as the control and turbidity was similarly determined. […]

[2] = system: Bifidobacterium bifidum BB-225; assay: Consumption speed-accelerating effect (increase in turbidity after 8 hours, test medium / glucose basic medium); type: cell-based; details: for Consumption speed-accelerating effect, Bifidobacterium bifidum: Table 1, single oligosaccharide in place of glucose; for Consumption speed-accelerating effect, B. bifidum: Table 2, raffinose + lactulose, total 2.0% in place of 2.0% glucose
Method: (§1) Bifidobacterium bifidum BB-225, Bifidobacterium adolescentis BB-102, Bifidobacterium breve BB-308, Bifidobacterium longum BB-536. The basic culture medium and pre-cultivation solution were prepared as in above-mentioned Preliminary Test 1. The test culture medium was prepared using the following 7 types of oligosaccharides, which are widely used as Lactobacillus bifidus growth factor, in place of glucose: Raffinose (Nihon […] Seito Co., Ltd.), lactulose (Morinaga Milk Industry Co., Ltd.), galacto-oligosaccharide (Nisshin Seito Co., Ltd.), lactosucrose (Hayashibara Shoji Co., Ltd.), fructo-oligosaccharide (Meiji Seika Co., Ltd.), isomalto-oligosaccharide (Hayashibara Shoji Co., Ltd.), and xylo-oligosaccharide (Santori Co., Ltd.). Cultivation was performed as in above-mentioned Preliminary Test 1 and the sugar consumption speed was calculated by the following formula and comparative studies were performed, using the increment increase in turbidity of each medium up to 8 hours later as the index. Consumption speed-accelerating effect (fold)=(increase in turbidity after 8 hours in test medium)/(increase in turbidity after 8 hours in basic medium) The basic culture medium and pre-cultivation solution were prepared as for above-mentioned Preliminary Test 1. The test culture medium was prepared changing the total amount of each of the desired raffinose and oligosaccharide to 2.0% in place of the 2.0% glucose in the basic medium and the addition ratio to 13 steps. The oligosaccharides that were used were the same as in above-mentioned Preliminary Test 2, and cultivation, determination of turbidity and assessment of the sugar consumption speed-accelerating activity were performed by the same methods as in above-mentioned Preliminary Test 2.

[3] = system: Bifidobacterium breve BB-308; assay: as above; type: cell-based; details: for Consumption speed-accelerating effect, Bifidobacterium breve: Table 1, single oligosaccharide in place of glucose; for Consumption speed-accelerating effect, B breve: Table 2, raffinose + lactulose, total 2.0% in place of 2.0% glucose
Method: as §1

[4] = system: Bifidobacterium longum BB-536; assay: as above; type: cell-based; details: for Consumption speed-accelerating effect, Bifidobacterium longum: Table 1, single oligosaccharide in place of glucose; for Consumption speed-accelerating effect, B longum: Table 2, raffinose + lactulose, total 2.0% in place of 2.0% glucose
Method: as §1

[5] = system: Bifidobacterium adolescentis BB-102; assay: as above; type: cell-based; details: for Consumption speed-accelerating effect, Bifidobacterium adolescentis: Table 1, single oligosaccharide in place of glucose; for Consumption speed-accelerating effect, B. adolescentis: Table 2, raffinose + lactulose, total 2.0% in place of 2.0% glucose
Method: as §1

[6] = system: 4 species of Lactobacillus bifidus; assay: Mean consumption speed-accelerating activity of 4 species of test bacteria; type: cell-based, Bifidobacterium adolescentis, breve, bifidum, longum; details: 8 hours; for Mean consumption speed-accelerating activity of 4 species: Table 2, raffinose + lactulose; for Mean consumption speed-accelerating activity of 4 species / Mean consumption speed-accelerating activity of 4 species of test bacteria: total 2.0% in place of 2.0% glucose; for Mean consumption speed-accelerating activity of 4 species of test bacteria: Table 3, raffinose + other oligosaccharide
Method: Bifidobacterium bifidum BB-225, Bifidobacterium adolescentis BB-102, Bifidobacterium breve BB-308, Bifidobacterium longum BB-536. Cultivation was performed as in above-mentioned Preliminary Test 1 and the sugar consumption speed was calculated by the following formula and comparative studies were performed, using the increment increase in turbidity of each medium up to 8 hours later as the index. Consumption speed-accelerating effect (fold)=(increase in turbidity after 8 hours in test medium)/(increase in turbidity after 8 hours in basic medium) The same four species of Lactobacillus bifidus as used in above-mentioned Preliminary Test 2 were employed. The basic culture medium and pre-cultivation solution were prepared as for above-mentioned Preliminary Test 1. The test culture medium was prepared changing the total amount of each of the desired raffinose and oligosaccharide to 2.0% in place of the 2.0% glucose in the basic medium and the addition ratio to 13 steps. The oligosaccharides that were used were the same as in above-mentioned Preliminary Test 2, and cultivation, determination of turbidity and assessment of the sugar consumption speed-accelerating activity were performed by the same methods as in above-mentioned Preliminary Test 2. The consumption speed-accelerating effect of each of the 4 strains of Lactobaccilus bifidus tested, as well as the average consumption speed-accelerating effect of the 4 species tested, in a culture medium that used a combination of raffinose and lactulose are shown in Table 2 and the average consumption speed-accelerating effect in each of the 4 species of bacteria tested with various test media other than medium using raffinose and lactulose are shown in Table 3.

Row | SMILES | sugar consumption speed compared with glucose medium (FIG. 1) [1] | Consumption speed-accelerating effect, Bifidobacterium bifidum [2] [fold] | Consumption speed-accelerating effect, B. bifidum [2] | availability for Bifidobacterium bifidus (in words) ([2]; single oligosaccharide in place of glucose) | Consumption speed-accelerating effect, Bifidobacterium breve [3] [fold] | Consumption speed-accelerating effect, B breve [3] | Consumption speed-accelerating effect, Bifidobacterium longum [4] [fold] | Consumption speed-accelerating effect, B longum [4] | Consumption speed-accelerating effect, Bifidobacterium adolescentis [5] [fold] | Consumption speed-accelerating effect, B. adolescentis [5] | Mean consumption speed-accelerating activity of 4 species [6] | Mean consumption speed-accelerating activity of 4 species of test bacteria [6] | consumption speed-accelerating activity by Lactobacillus bifidus (in words) ([6]; 4 species, compared with glucose medium)
1 | OC[C@H]1O[C@H](OC[C@H]2O[C@H](O[C@]3(CO)O[C@H](CO)[C@@H](O)[C@@H]3O)[C@H](O)[C@@H](O)[C@@H]2O)[C@H](O)[C@@H](O)[C@H]1O [Raffinose] | higher consumption speed than the medium that used glucose | 0.02 | (0.02) fold | did not show availability | 1.15 | (1.15) fold | 1.09 | (1.09) fold | 1.02 | (1.02) fold | (0.82) fold | (0.82) fold | 
2 | OC[C@H]1O[C@@H](O[C@@H]2[C@@H](CO)OC(O)(CO)[C@H]2O)[C@H](O)[C@@H](O)[C@H]1O (mixture of isomers) [Lactulose] | approximately the same sugar consumption speed as the medium that used glucose | 0.96 | (0.96) fold |  | 1.08 | (1.08) fold | 0.92 | (0.92) fold | 0.97 | (0.97) fold | (0.98) fold |  | relatively strong consumption speed-accelerating activity
3 | OC[C@H]1O[C@@H](O[C@H]2[C@H](O)[C@@H](O)[C@@H](O[C@]3(CO)O[C@H](CO)[C@@H](O)[C@@H]3O)O[C@@H]2CO)[C@H](O)[C@@H](O)[C@H]1O [Lacto-sucrose, lactosucrose] |  | 0.03 |  |  | 0.87 |  | 0.78 |  | 0.83 |  |  | (0.63) fold | 
